Assay results reported in patent US20090203701A1, “PROPHYLACTIC AND/OR THERAPEUTIC AGENT FOR RHEUMATOID ARTHRITIS” (KOWA CO., LTD, priority 2006, published 2009).

Test system: rat collagen-induced arthritis model
Assay: Edema suppression in both hindlimbs, rat collagen-induced arthritis model
Assay type: in vivo
Parameters: key to Edema Index: sum of both hindlimb edema volumes on days 14, 18, 22, 26
Details: for Relative index: control group = 1.000; for Edema Index: average ± standard error
Method: For the cases of combined administration and respective single drug administrations of 2-benzyl-5-(4-chlorophenyl)-6-[4-(methylthio)phenyl]-2H-pyridazin-3-one and atorvastatin calcium hydrate, the effect of edema suppression in both hindlimbs was determined by the following method (rat collagen-induced arthritis model) (FDA, CBER, CDER, CDRH: Guidance for industry—Clinical development programs for drugs, devices, and biological products for the treatment of rheumatoid arthritis (RA)—.(1999)).
For the test animal, female Lewis rats (LEW/Crj) (obtained from Charles River Laboratories Japan, Inc.) were used.
For each 8-week-old LEW/Crj rat, the volume of a portion from the ankle to the toe tip of both hindlimbs (hereinafter, both hindlimbs volume) was measured by means of a plethysmometer for small animals (TK-101CMP, product of Unicom), and the total volume was taken as the both hindlimbs volume upon initiation of test (hereinafter, Pre value). This Pre value was used as an index to divide the rats into groups by randomized block design by the single variable, so that the values in the respective groups averaged out.
The collagen emulsion for sensitization that was used to induce arthritis in rats, was prepared by homogenizing a 0.3% Type II collagen solution (Collagen Research Center), Adjuvant Peptide (Peptide Institute, Inc.) and Adjuvant Incomplete Freund (DIFCO), using a Handy Micro Homogenizer (Microtec Nition, Co., Ltd.) under ice-cooling. The collagen emulsion thus prepared was intracutaneously administered at 10 sites in the back of each rat at a dose of 0.1 mL/site, to perform initial sensitization of the rat. Seven days after the initial sensitization, 0.12 mL of the same collagen emulsion was intracutaneously administered to the root of tail in each rat, to perform booster sensitization.
Drug administration was conducted from the day after the initial sensitization through 26 days thereafter. The group for sole administration of 2-benzyl-5-(4-chlorophenyl)-6-[4-(methylthio)phenyl]-2H-pyridazin-3-one (Drug A) was orally administered with the drug at 3 mg/kg, twice a day, in the morning (9:00 to 11:00) and in the evening (15:30 to 17:30). The group for sole administration of atorvastatin calcium hydrate (Drug B1) was orally administered with the drug at 30 or 100 mg/kg, once a day, in the afternoon (11:30 to 13:30). On the other hand, the group for combined administration of Drug A and Drug B1 was orally administered with Drug A at 3 mg/kg in the morning (9:00 to 11:00) and in the evening (15:30 to 17:30), and with Drug B1 at 30 or 100 mg/kg in the afternoon (11:30 to 13:30).
14, 18, 22 and 26 days after the initial sensitization, the both hindlimbs volume was measured again for each rat, and the difference between each of the values and the Pre value was determined to calculate the edema volume for both hindlimbs. The sum of the edema volumes for both hindlimbs measured 14, 18, 22 and 26 days after the initial sensitization was calculated as Edema Index, and this was taken as an index for the effects of the drugs.
Table 1 and FIG. 1 present the Edema Indices of the group for sole administration of 3 mg/kg of Drug A, the group for sole administration of 30 mg/kg of Drug B1, and the group for combined administration of both drugs. Furthermore, Table 2 and FIG. 2 present the Edema Indices of the group for sole administration of 3 mg/kg of Drug A, the group for sole administration of 100 mg/kg of Drug B1, and the group for combined administration of both drugs. The Edema Index is expressed in the average value±standard error of 8 rats in each group. Furthermore, the decrease rate is indicated as ((X−Y)/X)×100 (X: average Edema Index for control group, Y: average Edema Index for each group)

CSc1ccc(-c2nn(Cc3ccccc3)c(=O)cc2-c2ccc(Cl)cc2)cc1 [Drug A, 2-benzyl-5-(4-chlorophenyl)-6-[4-(methylthio)phenyl]-2H-pyridazin-3-one]
Relative index (Table 1 experiment, sole Drug A 3 mg/kg orally twice a day): 0.935
Decrease rate (%) (Table 1 experiment, sole Drug A 3 mg/kg orally twice a day, vs control group Edema Index): 6.5%
Edema Index (Table 1 experiment, sole administration of Drug A 3 mg/kg orally twice a day, day 1-26 after initial sensitization, sum of edema volumes on days 14, 18, 22, 26): 5.23 ± 0.45
Relative index (Table 2 experiment, sole Drug A 3 mg/kg orally twice a day): 0.790
Decrease rate (%) (Table 2 experiment, sole Drug A 3 mg/kg orally twice a day, vs control group): 21.0%
Edema Index (Table 2 experiment, sole administration of Drug A 3 mg/kg orally twice a day, day 1-26): 4.89 ± 0.57

CC(C)c1c(C(=O)Nc2ccccc2)c(-c2ccccc2)c(-c2ccc(F)cc2)n1CC[C@@H](O)C[C@@H](O)CC(=O)O [Drug B1, atorvastatin calcium hydrate]
Relative index (Table 1 experiment, sole Drug B1 30 mg/kg orally once a day): 1.086
Decrease rate (%) (Table 1 experiment, sole Drug B1 30 mg/kg orally once a day, vs control group): −8.6%
Edema Index (Table 1 experiment, sole administration of Drug B1 30 mg/kg orally once a day, day 1-26): 6.07 ± 0.30
Relative index (Table 2 experiment, sole Drug B1 100 mg/kg orally once a day): 1.060
Decrease rate (%) (Table 2 experiment, sole Drug B1 100 mg/kg orally once a day, vs control group): −6.0%
Edema Index (Table 2 experiment, sole administration of Drug B1 100 mg/kg orally once a day, day 1-26): 6.57 ± 0.31
Effects on edema (Edema Index), in words (sole Drug B1 at the doses of 30 and 100 mg/kg): did not show any effects on edema
